# In US9139519B2, “Organonitro thioether compounds and medical uses thereof” (EPICENTRX, INC., priority 2011, dated 2015):
# Experiments:
# SCCVII tumor = experiment: Anti-cancer assay: SCCVII tumor volume in C3H mice; format: in vivo; conditions: male C3H mice with subcutaneous SCCVII tumors; 1.15 mg/mL in 5% DMSO/water, intraperitoneal, q.o.d. on Days 0, 2 and 4 (3 doses)
# Protocol: Mice with SCC VII tumors were treated with Compound 1, which has the following chemical structure.
# The Treatment Composition was Compound 1 in a water/DMSO carrier. The Treatment Composition was prepared by dissolving 2.3 mg of Compound 1 in 0.1 mL of DMSO and mixing the resultant solution with 1.9 mL of water to provide a solution containing 1.15 mg/mL of Compound 1. The concentration of dimethylsulfoxide (DMSO) in the Treatment Composition was 5%.
# Male C3H mice were obtained from Charles River Laboratories and maintained under specific pathogen-free conditions. Mice were housed five animals per cage and autoclaved food and water was provided ad libitum. Cages were located in rooms having a temperature of 65±2 degrees Fahrenheit, a humidity of 50%±5%, and a 12-hour day-and-night light cycle. Mice were 7-8 weeks old, with a body weight in the range of 22-25 grams, at the time inoculated with tumor cells.
# Mice were inoculated subcutaneously with 5×10^5 SCCVII tumor cells in 0.05 mL Hank's solution on the back. […] The length and width of the tumors were measured with calipers immediately before treatment and three times a week thereafter until the tumor volume reached at least four times (4×) the original pre-treatment volume. Tumor volume (mm^3) was calculated according to the formula: Tumor Volume=π/6×length×width^2 Part II: Results
# [1] = Toxicity evaluation in healthy rats; format: in vivo; conditions: for Clinical observations: femoral vein infusion
# Protocol: Compound 1 was administered to healthy rats and the rats were evaluated for evidence of toxic side effects due to Compound 1. Experimental procedures and results are described below.
# Two groups of 3 male rats each were given a 100 or 300 mg/kg dose of Compound 1 prepared in 0.9% saline solution. A third group of 3 rats were given saline alone. Doses were delivered via a femoral vein. The 100 mg/kg dose was delivered using a 10 mg/mL solution at a dose volume of 10 mL/kg and an infusion rate of 15 mL/hr. The 300 mg/kg dose was delivered using a 20 mg/mL solution at a dose volume of 15 mL/kg and an infusion rate of 15 mL/hr.
structure (smiles),measurement,setting,value
N[C@@H](CSCC(=O)N1CC([N+](=O)[O-])([N+](=O)[O-])C1)C(=O)O [Compound 1],Tumor volume versus untreated control,SCCVII tumor,smaller than tumors in mice that did not receive the Treatment Composition
same,Toxicity (overall conclusion),"[1]; healthy male rats, 100 or 300 mg/kg in 0.9% saline via femoral vein, observed for 24 hours",no significant toxicity was observed
same,Clinical observations,"[1]; rats, 100 mg/kg dose, observed for 24 hours",No notable clinical observations
same,Clinical observations,"[1]; rats, 300 mg/kg dose, observed for 24 hours",pale during the first 3 hours post dose
same,Gross changes in the lungs at necropsy,"[1]; rats, 100 or 300 mg/kg, necropsy after 24 hours",no gross changes in the lungs
same,Kidney observation at necropsy,"[1]; rats, 100 or 300 mg/kg, necropsy after 24 hours, significance undetermined",Mottled kidneys were observed in most rats
